# Article PMC7310833, “Structural and biochemical characterization of a novel thermophilic Coh01147 protease” (PLoS ONE, 2020)
# Target: T1, protease 1147 (Cohnella sp. A01, UniProt A0A5J6KIY6)
# T1 construct: full length, 169 residues, no signal peptide, C-terminal His-tag (pET26b(+)), E. coli BL21 (DE3), about 18 kDa on SDS-PAGE; N-terminus from primer MKKVAFL; Ni-NTA
# T1 sequence (A0A5J6KIY6 1-169): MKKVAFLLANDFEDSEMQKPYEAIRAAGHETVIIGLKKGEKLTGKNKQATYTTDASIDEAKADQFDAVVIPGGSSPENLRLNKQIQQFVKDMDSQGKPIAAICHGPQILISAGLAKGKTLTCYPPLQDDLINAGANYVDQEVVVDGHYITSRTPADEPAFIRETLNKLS
# Assay: casein hydrolysis, TCA-soluble A280
# Type: biochemical
# Settings: […] and […] inhibitor; casein substrate; table prints NA, text says completely inhibited; […] C, pH […]
smiles,measurement,value
"CC(C)C[C@H](NC(=O)[C@@H]1O[C@H]1C(=O)O)C(=O)NCCCCN=C(N)N [E-64, Trans-Epoxysuccinyl-L-leucylamido (4-guanidino) butane]",relative activity (%),"completely inhibited by IAM, E-64, and leupeptin, which are the typical cysteine protease inhibitors"
